ChEMBL document CHEMBL3763080, “Design and synthesis of a C7-aryl piperlongumine derivative with potent antimicrotubule and mutant p53-reactivating properties” (Eur J Med Chem, 2016)
Active and inactive are the calls of the source. The calls are words filed in the database; no cut-off is given here.

What was measured:
A549 = test: Cytotoxicity against human A549 cells assessed as cell viability after 72 hrs by resazurin reduction assay; type: functional, cell-based; details: A549, 72 h
MCF7 = test: Cytotoxicity against human MCF7 cells assessed as cell viability after 72 hrs by resazurin reduction assay; type: functional, cell-based; details: MCF7, 72 h
T98G = test: Cytotoxicity against human T98G cells assessed as cell viability after 72 hrs by resazurin reduction assay; type: functional, cell-based
[1] = Cytotoxicity against human SKBR3 cells assessed as cell viability after 72 hrs by resazurin reduction assay; type: functional, cell-based; details: SK-BR-3, 72 h
[2] = Cytotoxicity against human HT1080 cells assessed as cell viability after 72 hrs by resazurin reduction assay; type: functional, cell-based; details: HT-1080, 72 h
[3] = Cytotoxicity against human SF188 cells assessed as cell viability after 72 hrs by resazurin reduction assay; type: functional, cell-based; details: SF-188, 72 h
[4] = Cytotoxicity against human GBM10 cells assessed as cell viability after 72 hrs by resazurin reduction assay; type: functional, cell-based; details: GBM10, 72 h
HT-29 = test: Cytotoxicity against human HT-29 cells assessed as cell viability after 72 hrs by resazurin reduction assay; type: functional, cell-based; details: HT-29, 72 h
SK-BR-3 = test: Induction of microtubule destabilization in human SKBR3 cells assessed as soluble fraction of protein at 2.5 uM after 24 hrs by Western blot analysis; type: cell-based
Tubulin (Bos taurus) = Tubulin (Bos taurus) (UniProt Q6B856+Q862L2+Q862F3); test: Inhibition of bovine brain tubulin polymerization measured every 1 min for 30 mins by fluorescence assay
[5] = tested on: Cellular tumor antigen p53 (Homo sapiens), P04637 [R175H]; test: Reactivation of human p53 R175H mutant in human SKBR3 cells assessed as upregulation of Aurora kinase A expression at 2.5 uM after 24 hrs by Western blot analysis; type: cell-based; details: SK-BR-3
[6] = tested on: Cellular tumor antigen p53 (Homo sapiens), P04637 [R175H]; test: Reactivation of human p53 R175H mutant in SKBR3 cells assessed as increase in p53 DNA binding at 5 uM by biotinylated double stranded DNA probe-based electrophoretic-mobility shift assay; type: cell-based; details: SK-BR-3
[7] = tested on: Cellular tumor antigen p53 (Homo sapiens), P04637 [R175H]; test: Reactivation of human p53 R175H mutant in human SKBR3 cells assessed as downregulation of CDC25C expression at 2.5 uM after 24 hrs by Western blot analysis; type: cell-based; details: SK-BR-3
[8] = tested on: Cellular tumor antigen p53 (Homo sapiens), P04637 [R175H]; test: Reactivation of human p53 R175H mutant in human SKBR3 cells assessed as increase in wild type p53 expression after 12 hrs by immunoprecipitation/Western blot analysis; type: cell-based; details: SK-BR-3
[9] = tested on: Cellular tumor antigen p53 (Homo sapiens), P04637 [R175H]; test: Reactivation of human p53 R175H mutant in human SKBR3 cells assessed as upregulation of MDM2 expression after 24 hrs by Western blot analysis; type: cell-based; details: SK-BR-3
[10] = tested on: Cellular tumor antigen p53 (Homo sapiens), P04637 [R175H]; test: Reactivation of human p53 R175H mutant in human SKBR3 cells assessed as decrease in mutant p53 expression after 12 hrs by immunoprecipitation/Western blot analysis; type: cell-based; design: scale not given: the % may be the effect or the level left; details: SK-BR-3
[11] = tested on: Cellular tumor antigen p53 (Homo sapiens), P04637 [R175H]; test: Reactivation of human p53 R175H mutant in human SKBR3 cells assessed as upregulation of cyclin B1 expression at 2.5 uM after 24 hrs by Western blot analysis; type: cell-based; details: SK-BR-3
[12] = tested on: Cellular tumor antigen p53 (Homo sapiens), P04637 [R175H]; test: Reactivation of human p53 R175H mutant in human SKBR3 cells assessed as cell cycle arrest at G2/M phase at 2.5 uM after 24 hrs by propidium iodide staining based flow cytometric analysis; details: SK-BR-3
[13] = tested on: Cellular tumor antigen p53 (Homo sapiens), P04637 [R175H]; test: Reactivation of p53 R175H mutant in human SKBR3 cells at 5 uM after 12 hrs by flow cytometric analysis; type: cell-based; details: SK-BR-3
[14] = tested on: Cellular tumor antigen p53 (Homo sapiens), P04637 [R175H]; test: Reactivation of human p53 R175H mutant in human SKBR3 cells assessed as upregulation of p21cip1 expression after 24 hrs by Western blot analysis; type: cell-based; details: SK-BR-3
[15] = tested on: Cellular tumor antigen p53 (Homo sapiens), P04637 [R175H]; test: Reactivation of human p53 R175H mutant in SKBR3 cells assessed as increase in p53 DNA binding at 5 uM by non biotinylated double stranded DNA probe-based electrophoretic-mobility shift assay; type: cell-based; details: SK-BR-3
[16] = tested on: Cellular tumor antigen p53 (Homo sapiens), P04637 [R175H]; test: Reactivation of human p53 R175H mutant in human SKBR3 cells assessed as upregulation of PUMA expression after 24 hrs by Western blot analysis; type: cell-based; details: SK-BR-3
[17] = tested on: Cellular tumor antigen p53 (Homo sapiens), P04637 [R175H]; test: Reactivation of p53 R175H mutant in human SKBR3 cells assessed as accumulation of wild type p53 at 5 uM after 12 hrs by DAPI staining based confocal/multiphoton microscopic analysis; type: cell-based; details: SK-BR-3

Structure (SMILES)	IC50 (A549)	IC50 (MCF7)	IC50 (T98G)	IC50 [1]	IC50 [2]	IC50 [3]	IC50 [4]	IC50 (HT-29)	inhibition (Tubulin (Bos taurus))	further results
COc1cc(/C=C/C(=O)N2CCC=CC2=O)cc(OC)c1OC [PIPLARTINE]	6540 nM	6140 nM	4920 nM	4040 nM	3430 nM	3900 nM	3810 nM	5490 nM	–	–
COC(=O)Nc1nc2cc(C(=O)c3cccs3)ccc2[nH]1	–	–	–	–	–	–	–	–	–	Activity (SK-BR-3): Active
COc1ccc(/C=C\c2cc(OC)c(OC)c(OC)c2)cc1O [COMBRETASTATIN A4]	3 nM	42 nM	11 nM	8 nM	70 nM	21 nM	52 nM	420 nM	Dose-dependent effect	–
COc1ccc(/C(=C\c2cc(OC)c(OC)c(OC)c2)C(=O)N2CCC=CC2=O)cc1	–	–	–	–	–	–	–	–	Dose-dependent effect	Activity [5]: Active; Activity [6]: Active; Activity [7]: Active; Activity [8]: 80%; Activity [9]: Dose-dependent effect; Activity [10]: 90%; Activity [11]: Active; Activity [12]: > 60%; Activity [13]: Active; Activity [14]: Dose-dependent effect; Activity [15]: inactive; Activity [16]: Dose-dependent effect; Activity [17]: Active
